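Interpolation was linear, between the two tested concentrations surrounding the appropriate level; five concentrations were tested over 48 hours in 96-well plates. GI50 marks 50% less growth. At the TGI there is no net growth.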
What was measured:
Assay in all cases: growth of human tumour cells (NCI), 48 h
IGROV1 ovarian = system: IGROV1 ovarian
LOX IMVI melanoma = system: LOX IMVI melanoma
NCI-H23 lung = system: NCI-H23 lung
NCI-H522 lung = system: NCI-H522 lung
OVCAR-3 ovarian = system: OVCAR-3 ovarian
OVCAR-5 ovarian = system: OVCAR-5 ovarian
SF-268 CNS = system: SF-268 CNS
SF-295 CNS = system: SF-295 CNS
SK-MEL-2 melanoma = system: SK-MEL-2 melanoma
T-47D breast = system: T-47D breast

Compound	GI50 (IGROV1 ovarian) [µM]	TGI (IGROV1 ovarian) [µM]	GI50 (LOX IMVI melanoma) [µM]	TGI (LOX IMVI melanoma) [µM]	GI50 (NCI-H23 lung) [µM]	TGI (NCI-H23 lung) [µM]	GI50 (NCI-H522 lung) [µM]	TGI (NCI-H522 lung) [µM]	GI50 (OVCAR-3 ovarian) [µM]	TGI (OVCAR-3 ovarian) [µM]	GI50 (OVCAR-5 ovarian) [µM]	TGI (OVCAR-5 ovarian) [µM]	GI50 (SF-268 CNS) [µM]	TGI (SF-268 CNS) [µM]	GI50 (SF-295 CNS) [µM]	TGI (SF-295 CNS) [µM]	GI50 (SK-MEL-2 melanoma) [µM]	TGI (SK-MEL-2 melanoma) [µM]	GI50 (T-47D breast) [µM]	TGI (T-47D breast) [µM]
CN(C)c1cc(NN=C(c2ccc(O)cc2)c2ccc(O)cc2)c([N+](=O)[O-])cc1[N+](=O)[O-]	7.16	24.8	3.04	15.2	6.46	23.1	10.5	38.4	2.53	9.81	17.2	32.4	3.88	15.9	1.86	5.22	7.45	22.9	3.34	17.2
CC(C)[C@@H]1C=C2CC[C@H]3[C@](C)(CN)CCC[C@]3(C)[C@H]2CC1	1.93	4.09	1.52	2.85	1.94	4.09	1.91	4.16	2.8	9.22	2.22	5.38	7.27	20.7	1.9	4.29	3.88	14.2	1.99	4.61
O=S(=O)(c1ccccc1)N1CCN(S(=O)(=O)c2ccccc2)c2ccccc21	–	> 100	–	> 100	–	> 100	–	> 100	–	> 100	–	> 100	–	> 100	–	> 100	–	> 100	–	> 100
COc1ccc(CCN=C2NC(=O)/C(=C/c3ccc4ncccc4c3)S2)cc1	> 25	> 25	> 25	> 25	> 25	> 25	> 25	> 25	> 25	> 25	> 25	> 25	> 25	> 25	> 25	> 25	> 25	> 25	> 25	> 25
O=C1CCCCN1c1ccccc1C#C/C=C\C#Cc1ccccc1C(F)(F)F	1.12	3.63	1.84	8.87	1.26	4	1.19	3.1	0.879	2.4	3.35	> 50	3.81	> 50	1.11	3.16	7.26	> 50	> 50	> 50
O=C(O)c1nc2nc(Cl)c(Cl)nc2[nH]1	–	> 100	–	> 100	–	> 100	–	> 100	–	> 100	–	> 100	–	> 100	–	> 100	–	> 100	–	> 100
CCN(C(=O)N1CCN(c2cc3c(cc2F)c(=O)c(C(=O)O)cn3C2CC2)CC1)c1nc(-c2ccc(Cl)cc2)cs1	0.538	1.79	0.37	1.63	1.56	8.45	1.8	> 26.5	1.22	> 100	2.62	> 100	1.28	> 100	0.888	6	2.12	5.39	1.99	> 100
O=C(/C(=C/c1ccc([N+](=O)[O-])cc1)SCc1ccccc1)c1ccc(Cl)cc1	2.86	11.6	1.69	3.12	3.14	14.1	3.96	10.5	1.91	4.29	2.98	11.9	3.09	13.1	5.54	18.9	15.3	32.5	2.41	7.46
CCn1c(-c2nonc2N)nc2c(C#CC(C)(C)O)nc(OC[C@@H](N)c3ccccc3)cc21	5.04	10.4	4.2	8.82	5.13	10.8	4.28	7.9	4.24	8.23	7.92	15.1	5.04	9.22	4.59	9.63	5.83	10.2	3.8	8.24
Cc1nnc(NC(=O)c2nc(S(=O)(=O)Cc3ccc(F)cc3)ncc2Cl)s1	4.87	19.1	1.5	2.96	12.5	32.5	0.729	2.46	1.94	3.47	12.4	25.4	3.88	16.8	15.9	30.7	3.19	9.72	2.45	14.1
Nc1ccccc1SC(CC(=O)c1ccccc1)c1cccc([N+](=O)[O-])c1 (stereo not given)	13.1	28.1	1.99	4.07	17.6	32.6	15	29.5	12.8	25.8	17.4	32.2	16.3	31.3	16.2	30.3	20.6	35.8	12.1	36.2
COc1ccc(C2[C@@H](c3ccccc3)C(=O)N2c2cc(OC)c(OC)c(OC)c2)cc1F (stereo not given in full)	0.0428	> 100	0.0296	13.8	0.0489	> 100	0.0186	0.0657	0.028	0.077	0.0517	> 100	0.0443	> 100	0.029	1.78	0.0354	> 100	> 100	> 100

Reference: PubChem BioAssay (NCI)
